# Measured values from patent US20060009480A1, “Sinomenine and sinomenine compounds, synthesis and use” (priority 2002, published 2006).
# Tests used:
# Wistar rat [1] = test: Object recognition in the Wistar rat; type: in vivo; conditions: dose of 3 mg/kg; second session 24 hours later
# Text: The object recognition test in the Wistar rat was initially developed by ENNACEUR and DELACOUR (Behav. Brain Res., 1988, 31, 47-59). The test is based on the spontaneous exploratory activity of the animal and has the characteristics of episodic memory in humans. This memory test is sensitive to ageing (SCALI et al., Eur. J. Pharmacol., 1997, 325, 173-180) and to cholinergic dysfunctions (BARTOLINI et al., Pharm. Biochem. Behav. 1996, 53(2), 277-283) and is based on the differences in the exploration of 2 objects of fairly similar shape—one familiar, the other new. Prior to the test, the animals are habituated to the environment (an enclosure without an object). In the course of a first session, the rats are placed (3 minutes) in the enclosure, in which there are 2 identical objects. The duration of exploration is measured for each object. In the course of the second session (3 minutes), 24 hours later, 1 of the 2 objects is replaced by a new object. The duration of exploration is measured for each object. The assessment criterion is the difference, Delta, expressed in seconds, between the exploration times for the new object and for the familiar object in the course of the second session.
# Wistar rat [2] = test: Social recognition in the Wistar rat; type: in vivo; conditions: dose of 20 mg/kg (printed for Example 13); second encounter after 2 hours
# Text: Initially described in 1982 by THOR and HOLLOWAY (J. Comp. Physiol., 1982, 96, 1000-1006), the social recognition test has subsequently been proposed by various authors (DANTZER et al., Psychopharmacology, 1987, 91, 363-368; PERIO et al., Psychopharmacology, 1989, 97, 262-268) for studying the mnemocognitive effects of new compounds. The test is based on the natural expression of the olfactory memory of the rat and its natural tendency to forget, and allows evaluation of memorisation, by recognition of a young congeneric animal, by an adult rat. A young rat (21 days), taken at random, is placed for 5 minutes in the cage housing an adult rat. With the aid of a video device, the experimenter observes the social recognition behaviour of the adult rat and measures its overall duration. The young rat is then removed from the adult rat's cage and is placed in its own cage until the second introduction. The adult rat is given the compound under test and, after 2 hours, is again brought into the presence (5 minutes) of the young rat. The social recognition behaviour is then observed again and its duration measured. The assessment criterion is the difference (T2−T1), expressed in seconds, between the “recognition” times of the 2 encounters.
# NaNO2 induced anoxia = NaNO2 induced anoxia in mice; type: in vivo, mouse; conditions: 70 mg/kg p.o.; NaNO2 225 mg/kg ip
Compound,"difference, Delta, between the exploration times for the new object and the familiar object (Wistar rat [1])",difference (T2−T1) between the recognition times of the 2 encounters (Wistar rat [2]),prolongation of survival (NaNO2 induced anoxia)
"COC1=CC2C3Cc4c(Cl)cc(OC)c(O)c4C2(CCN3C)CC1O (stereo not drawn) [Example 4, (9α,13α)-1-Chloro-3,7-dimethoxy-17-methyl-7,8-didehydromorphinan-4,6-diol]",10 s,–,–
"COC1=CC2C3Cc4c(Br)cc(OC)c(O)c4C2(CCN3C)CC1O (stereo not drawn) [Example 13, (9α,13α)-1-Bromo-3,7-dimethoxy-17-methyl-7,8-didehydromorphinan-4,6-diol]",–,-36 s,–
"CCC(=O)Oc1c(OC)cc(Cl)c2c1C13CCN(C)C(C2)C1C=C(OC)C(OC(=O)CC)C3 (stereo not drawn) [Example 5, (9α,13α)-1-Chloro-3,7-dimethoxy-17-methyl4-(propionyloxy)7,8-didehydromorphinan-6-yl propionate]",–,-31 s,31%
